One block for each molecule: values may come before it. The source made the active and inactive calls.
How the values were obtained:
[1] = Trypanosoma cruzi growth suppression in host cells – NIH3T3 host cells, beta-gal luminescence, confirmation (AID 2044); format: functional, cell-based;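 note: intracellular parasites grown in NIH/3T3 mouse fibroblasts as host cells; luminescent beta-galactosidase reporter signal from transgenic T. cruzi replicating inside host cells; inhibitors lower the luminescence signal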
[2] = NIH3T3 cell viability loss – ATP luminescence, mouse fibroblasts, counter-screen, dose response (AID 2010); format: functional, cell-based;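 note: cells exposed to compound for about 90 hours before reading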
Cytochrome P450 2D6 = Cytochrome P450 2D6 (Homo sapiens, UniProt P10635);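 note: CYP2D6 member of a cytochrome P450 panel assay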
[3] = target: Luciferin 4-monooxygenase (Photinus pyralis, UniProt P08659); test: inhibition of purified Photinus pyralis luciferase – biochemical, luminescence, dose response (AID 1891)
[4] = Luminescence Cell-Based Dose Confirmation HTS to Identify Inhibitors of Platelet Dense Granule Release. [Related pubchem assays: 1663 (Primary HTS), 1678 (Summary of Project)]; format: functional
Cytochrome P450 2C19 = Cytochrome P450 2C19 (Homo sapiens, UniProt P33261); test: Cytochrome panel assay with activity outcomes. Panel member name: p450-cyp2c19 Compounds with AC50 equal or less than 10 uM are considered active; format: functional
[5] = viability of uninfected HEp-2 cells – cell-based, HTS, cytotoxicity control for RSV inhibitor project, dose response (AID 2410); format: functional; conditions: human respiratory syncytial virus
[6] = target: T1, Corticotropin-releasing factor receptor 2/Corticotropin-releasing factor-binding protein (Homo sapiens, UniProt P24387+Q13324); test: activators of CRF receptor 2 with binding protein – uHTS hits, confirmation (AID 602473); format: functional; conditions: read-out: EC50_Mean
T1 sequence (Q13324 whole entry): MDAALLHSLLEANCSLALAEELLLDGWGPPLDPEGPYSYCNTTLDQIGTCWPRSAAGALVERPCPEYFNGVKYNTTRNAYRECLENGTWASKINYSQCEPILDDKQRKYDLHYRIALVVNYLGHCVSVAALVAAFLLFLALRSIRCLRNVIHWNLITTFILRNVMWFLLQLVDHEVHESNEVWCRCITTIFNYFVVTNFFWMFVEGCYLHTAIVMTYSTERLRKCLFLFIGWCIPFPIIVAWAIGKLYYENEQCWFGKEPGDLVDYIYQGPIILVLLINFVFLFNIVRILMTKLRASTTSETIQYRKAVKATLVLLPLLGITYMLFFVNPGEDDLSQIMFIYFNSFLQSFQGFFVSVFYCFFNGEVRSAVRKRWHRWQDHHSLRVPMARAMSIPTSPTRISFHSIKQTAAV
T1 sequence (P24387 whole entry): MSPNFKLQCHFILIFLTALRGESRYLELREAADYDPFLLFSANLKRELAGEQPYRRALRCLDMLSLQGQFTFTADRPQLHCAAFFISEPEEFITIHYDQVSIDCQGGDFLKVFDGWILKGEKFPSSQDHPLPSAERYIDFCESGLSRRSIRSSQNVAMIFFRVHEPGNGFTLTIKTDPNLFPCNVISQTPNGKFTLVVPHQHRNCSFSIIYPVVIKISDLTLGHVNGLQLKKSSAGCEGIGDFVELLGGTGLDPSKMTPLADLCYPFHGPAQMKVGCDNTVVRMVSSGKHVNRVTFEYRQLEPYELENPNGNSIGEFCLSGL

[7] = tested on: Streptococcus sp. 'group A'; test: Streptococcus pyogenes SK(-)GAS viability under kanamycin – luminescence, BacTiterGlo, confirmation, counter-screen for streptokinase expression inhibitor project, dose response (AID 1900); format: functional, organism-based
Streptococcus = test: GAS UMAA2166 growth inhibition – luminescence, BacTiterGlo, counter-screen for streptokinase expression inhibitor project, dose response (AID 1915); format: functional, organism-based;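 note: potency for reduction of bacterial viability or growth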

Luciferin 4-monooxygenase, sequence (P08659 whole entry): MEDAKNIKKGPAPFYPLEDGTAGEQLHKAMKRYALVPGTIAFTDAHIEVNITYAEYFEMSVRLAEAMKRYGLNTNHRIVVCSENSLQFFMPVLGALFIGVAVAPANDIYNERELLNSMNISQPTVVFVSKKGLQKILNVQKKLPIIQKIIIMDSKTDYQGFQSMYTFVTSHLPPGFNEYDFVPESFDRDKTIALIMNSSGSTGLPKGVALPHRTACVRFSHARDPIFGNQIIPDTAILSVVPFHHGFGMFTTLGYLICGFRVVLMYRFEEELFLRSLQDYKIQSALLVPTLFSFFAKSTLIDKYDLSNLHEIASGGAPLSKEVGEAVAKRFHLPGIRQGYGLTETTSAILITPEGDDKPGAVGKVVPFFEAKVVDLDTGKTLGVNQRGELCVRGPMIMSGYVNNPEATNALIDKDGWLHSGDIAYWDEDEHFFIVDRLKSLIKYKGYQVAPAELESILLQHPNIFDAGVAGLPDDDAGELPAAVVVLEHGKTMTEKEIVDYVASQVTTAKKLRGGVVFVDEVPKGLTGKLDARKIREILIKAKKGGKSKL
Cytochrome P450 2D6, sequence (P10635 whole entry): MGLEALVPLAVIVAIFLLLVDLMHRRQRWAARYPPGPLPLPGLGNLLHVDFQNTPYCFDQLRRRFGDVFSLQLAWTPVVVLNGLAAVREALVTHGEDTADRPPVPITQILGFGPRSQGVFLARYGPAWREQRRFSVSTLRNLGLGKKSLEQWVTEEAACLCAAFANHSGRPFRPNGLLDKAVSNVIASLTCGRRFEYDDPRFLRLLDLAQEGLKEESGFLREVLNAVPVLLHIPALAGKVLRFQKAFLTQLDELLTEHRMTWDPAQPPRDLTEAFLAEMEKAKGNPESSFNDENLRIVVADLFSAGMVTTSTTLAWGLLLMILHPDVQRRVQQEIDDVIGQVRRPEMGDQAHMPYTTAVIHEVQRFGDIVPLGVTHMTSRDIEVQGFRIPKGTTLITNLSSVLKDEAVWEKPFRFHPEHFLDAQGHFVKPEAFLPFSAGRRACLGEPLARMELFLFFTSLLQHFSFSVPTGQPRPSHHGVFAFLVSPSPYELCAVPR
Cytochrome P450 2C19, sequence (P33261 whole entry): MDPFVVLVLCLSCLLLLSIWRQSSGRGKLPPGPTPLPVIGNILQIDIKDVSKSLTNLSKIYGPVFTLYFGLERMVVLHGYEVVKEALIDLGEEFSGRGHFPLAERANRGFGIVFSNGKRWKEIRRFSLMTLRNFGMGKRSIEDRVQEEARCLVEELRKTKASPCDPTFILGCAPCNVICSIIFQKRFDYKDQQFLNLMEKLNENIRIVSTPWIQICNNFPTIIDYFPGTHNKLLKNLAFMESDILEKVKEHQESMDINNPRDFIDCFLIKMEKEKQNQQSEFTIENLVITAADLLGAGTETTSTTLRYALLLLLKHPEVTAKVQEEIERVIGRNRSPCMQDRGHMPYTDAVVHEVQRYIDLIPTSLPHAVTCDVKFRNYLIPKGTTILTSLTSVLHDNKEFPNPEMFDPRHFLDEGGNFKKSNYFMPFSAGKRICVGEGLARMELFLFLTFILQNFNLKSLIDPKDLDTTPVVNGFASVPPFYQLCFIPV

Compound: Cc1nn(C)c(Cl)c1CN1CCCC(CCC(=O)NCc2ccccc2F)C1 (configuration not stated)
EC50 [1]: 0.181 µM (active)
EC50 [2]: > 30 µM (not active)

Compound: Cc1nc2c(C(=O)NCc3ccco3)cnn2c(C)c1Cc1ccc(F)cc1Cl
EC50 [1]: 2.17 µM (active)
EC50 [2]: > 30 µM (not active)

AC50 (Cytochrome P450 2D6): 14.1 µM (inconclusive)
Compound: Cc1cc2cc3c(cc2nc1SCC(=O)Nc1c(C)cccc1C)CCC3

Compound: CCOC(=O)c1cnc2c(C#N)c(C)nn2c1-c1ccccc1
EC50 [3]: > 112 µM (not active)
EC50 [4]: 54.1 µM (active)

AC50 (Cytochrome P450 2C19; read-out: AC50): 0.316 µM (inconclusive)
Compound: O=C1OCCC=C1[C@@H](O)CCc1ccccc1

Compound: CC1CCCCN1S(=O)(=O)c1ccc(S(=O)(=O)N(Cc2ccccc2)Cc2ccco2)cc1 (configuration not stated)
EC50 [1]: 1.09 µM (active)
EC50 [2]: > 60 µM (not active)

Compound: COc1ccc(N(CC(=O)NCCC2=CCCCC2)S(=O)(=O)c2ccccc2)cc1OC
EC50 [1]: 3.35 µM (active)
EC50 [2]: > 60 µM (not active)

Compound: Cc1ccc(-c2nc(SC(C)C(=O)N3CCOCC3)n[nH]2)cc1 (configuration not stated)
EC50 [3]: > 112 µM (not active)
EC50 [4]: > 112 µM (not active)

Compound: COc1ccc(-c2noc(CCCC(=O)NCC3CCCO3)n2)cc1 (configuration not stated)
CC50 [5]: 30.3 µM (active)

Compound: CCOc1ccc(C(=O)O/N=C(\N)c2ccccn2)cc1OCC
EC50 [3]: > 112 µM (not active)
EC50 [4]: > 112 µM (not active)

Compound: Cc1ccc(C)c(OCC(O)CN2CCc3ccccc3C2)c1C (configuration not stated)
CC50 [5]: 46.3 µM (active)

AC50 (Cytochrome P450 2C19; read-out: AC50): 7.08 µM (inconclusive)
Compound: Cc1ccc(NC(=O)C(=O)NCc2ccc(/C=C(/C#N)C(=O)NCc3cccnc3)o2)cc1

AC50 (Cytochrome P450 2D6): 25.1 µM (inconclusive)
Compound: CCc1ccc(C(C(=O)NCc2ccc(OC)cc2)N(CCOC)C(=O)Cc2cccs2)cc1 (configuration not stated)

Compound: Nc1nn(S(=O)(=O)c2ccccc2)cc1-c1cccc([N+](=O)[O-])c1
EC50 [1]: 1.83 µM (active)
EC50 [2]: > 60 µM (not active)

Compound: O=C(CCCc1ccccn1)c1ccccc1
AC50 (Cytochrome P450 2C19; read-out: AC50): 2.51 µM (inconclusive)

Compound: Cc1nn(C)cc1CNC(=O)C1CCC(=O)N(CC2CCCCC2)C1 (configuration not stated)
EC50 [3]: > 112 µM (not active)
EC50 [4]: > 112 µM (not active)

Compound: c1ccc(-c2cc3c(N4CCCC4)ncnc3s2)cc1
CC50 [5]: > 50 µM (active)

Compound: O=C(c1ccc(Cl)cc1)C1CCCN(Cc2cnn(-c3ccccc3)c2)C1 (configuration not stated)
EC50 [1]: 0.503 µM (active)
EC50 [2]: > 60 µM (inconclusive)

Compound: Cn1c(=O)c2c(SCC(=O)N3CCCc4ccccc43)nc(CC(C)(C)C)nc2n(C)c1=O
CC50 [5]: > 50 µM (active)

Compound: CCOc1ccccc1C1c2[nH]c3ccccc3c2C[C@H]2C(=O)N(C3CCN(Cc4ccccc4)CC3)CC(=O)N12 (some centres not stated)
EC50 [1]: 2.15 µM (active)
EC50 [2]: > 60 µM (not active)

AC50 (Cytochrome P450 2D6): 10 µM (inconclusive)
Compound: O=C(c1cccc(F)c1)N1CCC2(CCCN(Cc3ccccc3)C2)CC1

Compound: CCOC(=O)c1c(NC(=O)CN2C(=O)NC3(CCCCC3C)C2=O)sc(C)c1CC (configuration not stated)
EC50 [1]: 2.37 µM (active)
EC50 [2]: > 60 µM (not active)

Compound: CCN(CC)S(=O)(=O)c1ccc(NN=C2CCN(C)CC2)c([N+](=O)[O-])c1
EC50 [1]: 0.482 µM (active)
EC50 [2]: > 60 µM (not active)

EC50 [6]: 5.48 µM (active)
Compound: COc1cc(OC)c(OC)cc1/C=C1/Cc2ccccc2C1=O

Compound: COc1cccc(-c2cc(C(=O)Nc3ccc(N(C)C(C)=O)cc3)c3cc(Br)ccc3n2)c1
EC50 [1]: 1.83 µM (active)
EC50 [2]: > 60 µM (not active)

Compound: CCOCCCN1C(=O)CN(C2CCC(C)CC2)C(=O)C1c1ccc(C)cc1 (configuration not stated)
EC50 [3]: > 112 µM (not active)
EC50 [4]: > 112 µM (not active)

Compound: Nc1ccn(-c2ccc(Cl)cc2)c(=O)c1
EC50 [3]: > 112 µM (not active)
EC50 [4]: > 112 µM (not active)

AC50 (Cytochrome P450 2C19; read-out: AC50): 20 µM (inconclusive)
AC50 (Cytochrome P450 2D6): 12.6 µM (inconclusive)
Compound: O=C(Nc1cccc(F)c1)N1CCC2(CCNCC2)CC1

Compound: COc1ccc(Cl)cc1Nc1nc(-c2sc(NC(=O)c3ccco3)nc2C)cs1
CC50 [5]: 35.4 µM (active)

Compound: COC(=O)c1c(NC(=O)C2CC(=O)NN2Cc2ccccc2)sc(C)c1C (configuration not stated)
EC50 [3]: > 112 µM (not active)
EC50 [4]: > 112 µM (not active)

AC50 (Cytochrome P450 2D6): 3.16 µM (inconclusive)
Compound: N#Cc1c(-c2ccc3c(c2)OCO3)ccn2nc(-c3cccc(C(F)(F)F)c3)nc12

Compound: CNc1ccc(Oc2nc([N+](=O)[O-])nn2C)cc1
EC50 [1]: 1.43 µM (active)
EC50 [2]: > 60 µM (not active)

Compound: COC(=O)c1c(NC(=O)CN2C(=O)NC3(CCC(C(C)(C)C)CC3)C2=O)sc2c1CCCCC2 (configuration not stated)
EC50 [1]: 3.11 µM (active)
EC50 [2]: > 60 µM (not active)

EC50 [6]: > 53 µM (inactive)
Compound: O=C(Nc1ncc(Cc2ccc(Cl)cc2Cl)s1)c1ccc([N+](=O)[O-])cc1

Compound: CN(C)CCOC(=O)C1(c2ccccc2)CCCC1
EC50 [3]: > 112 µM (not active)
EC50 [4]: > 112 µM (not active)

Compound: c1ccc2c(N3CCCCCC3)nc(-c3ccncc3)nc2c1
CC50 [5]: 15.9 µM (active)

Compound: CC(=O)OCCN1C(=O)c2cccc3cc([N+](=O)[O-])cc(c23)C1=O
EC50 [1]: 0.358 µM (active)
EC50 [2]: > 30 µM (not active)

AC50 (Cytochrome P450 2C19): inconclusive
Compound: O=C(O)CC1(CC(=O)O)Nc2ccccc2SC1=O

Compound: CSc1scc2c1-c1nc(SCC(=O)C(C)(C)C)ncc1CC2
CC50 [5]: 20.6 µM (active)

Compound: CCc1ccc2nc(O)c(CN(Cc3ccccc3)C(=O)Nc3ccccc3OC)cc2c1
EC50 [1]: 1.93 µM (active)
EC50 [2]: > 60 µM (not active)

Compound: COc1ccc(-n2nc3c(N4CCC(C(=O)N5CCCCCC5)CC4)nnc(C)c3c2C)cc1
EC50 [1]: 0.858 µM (active)
EC50 [2]: > 60 µM (not active)

AC50 (Cytochrome P450 2C19; read-out: AC50): 25.1 µM (inconclusive)
Compound: COC(=O)[C@@]1(Cc2ccc(OC)cc2)[C@H]2c3cc(C(=O)N(C)C)n(C)c3C[C@H]2CN1C(=O)c1ccccc1

AC50 (Cytochrome P450 2D6): 44.7 µM (inconclusive)
Compound: COC(=O)Cn1c(=N)n(CCN2CCCCC2)c2ccccc21

Compound: Sc1ncnc2c1sc1nc(N3CCOCC3)c3c(c12)CCCC3
CC50 [5]: > 50 µM (active)

Compound: COc1ccc(CN2CCNC(=O)C2CC(=O)NCC(C)(C)N2CCOCC2)cc1C (configuration not stated)
EC50 [3]: > 112 µM (not active)
EC50 [4]: > 112 µM (not active)

EC50 [6]: 4.9 µM (active)
Compound: CCOC(=O)/C=c1/s/c(=C/c2ccc3cc(OC)ccc3c2)c(=O)n1CC(=O)NCc1ccc2c(c1)OCO2

EC50 [6]: 5.44 µM (active)
Compound: COc1cc(C)c(C)cc1S(=O)(=O)N1CCCc2ccccc21

AC50 (Cytochrome P450 2C19; read-out: AC50): 0.00562 µM (inconclusive)
Compound: COc1cc(N2CCOCC2)ncn1

AC50 (Cytochrome P450 2C19; read-out: AC50): 15.8 µM (inconclusive)
AC50 (Cytochrome P450 2D6): 4.47 µM (inconclusive)
Compound: Cc1cccc(OCC(=O)NNC(=O)CSc2ncc(C#N)c(N)n2)c1

Compound: Nc1cccc2c1Cc1cc([N+](=O)[O-])ccc1-2
EC50 [6]: > 53 µM (inactive)

Compound: Fc1ccc(/C=N/Nc2nccnc2Cl)cc1
EC50 [3]: 8.1 µM (active)
EC50 [4]: 1.65 µM (active)

EC50 [6]: 1.24 µM (active)
Compound: Cc1c(/C=N/NC(=O)C(NC(=O)c2ccc3c(c2)OCO3)C(C)C)c2ccccc2n1C (configuration not stated)

Compound: CC(=O)c1sc(N/N=C\c2c(O)ccc3ccccc23)nc1C
EC50 [7]: 4.07 µM (active)
EC50 (Streptococcus): 7.49 µM (active)

Compound: CN(C)c1ccc(/C=N/N=C(N)N)cc1[N+](=O)[O-]
EC50 [1]: 0.144 µM (active)
EC50 [2]: > 60 µM (not active)

Compound: NC(=S)N/N=C/c1ccc(-c2cc(Cl)cc(Cl)c2)o1
EC50 [1]: 2.67 µM (active)
EC50 [2]: > 60 µM (not active)

AC50 (Cytochrome P450 2D6): 14.1 µM (inconclusive)
Compound: COc1cc(O)oc1/C=N/c1ccc(Cl)cc1

AC50 (Cytochrome P450 2D6): 15.8 µM (inconclusive)
Compound: C[C@@H]1CN(CCCn2c3ccccc3c3ccccc32)C[C@H](C)N1 [RIMCAZOLE]
